According to ChEMBL document CHEMBL4257559, “Protective effects of astragaloside IV against hypoxic pulmonary hypertension” (Medchemcomm, 2018):
Active and inactive are the calls of the source. The calls are words filed in the database; no cut-off is given here.

What was measured:
Rattus norvegicus [1] = experiment: Protective effect against chronic hypoxia-induced pulmonary hypertension in Sprague-Dawley rat assessed as decrease in right ventricular pressure at 10 mg/kg, ip administered every other day at 10 mins prior to induction of hypoxia and measured after 2 weeks; assay type: functional, organism-based
Rattus norvegicus [2] = experiment: Protective effect against chronic hypoxia-induced pulmonary hypertension in Sprague-Dawley rat assessed as decrease in mean pulmonary arterial pressure at 10 mg/kg, ip administered every other day at 10 mins prior to induction of hypoxia and measured after 2 weeks; assay type: functional, organism-based
[3] = Cmax in chronic hypoxia-induced pulmonary hypertension model of Sprague-Dawley rat at 50 mg/kg, ip after 30 to 600 mins by HPLC analysis; assay type: ADME, organism-based; set-up: dose 50 mg/kg, route intraperitoneal; settings: in vivo
[4] = Cmax in chronic hypoxia-induced pulmonary hypertension model of Sprague-Dawley rat at 10 mg/kg, ip after 30 to 600 mins by HPLC analysis; assay type: ADME, organism-based; set-up: dose 10 mg/kg, route intraperitoneal; settings: in vivo
Rattus norvegicus [5] = experiment: (§1) Protective effect against chronic hypoxia-induced pulmonary hypertension in Sprague-Dawley rat assessed as decrease in index of right ventricular hypertrophy by measuring ratio of right ventricular/(left ventricular + septum) weight at 10 mg/kg, ip administered every other day at 10 mins prior to induction of hypoxia and measured after 2 weeks; assay type: functional, organism-based
[6] = Tmax in chronic hypoxia-induced pulmonary hypertension model of Sprague-Dawley rat at 50 mg/kg, ip after 30 to 600 mins by HPLC analysis; assay type: ADME, organism-based; settings: in vivo
Rattus norvegicus [7] = experiment: as §1, with “weight at 50 mg/kg, ip” for “weight at 10 mg/kg, ip”; assay type: functional, organism-based
Rattus norvegicus [8] = experiment: Protective effect against chronic hypoxia-induced pulmonary hypertension in Sprague-Dawley rat assessed as decrease in serum angiotensin-2 levels at 10 mg/kg, ip administered every other day at 10 mins prior to induction of hypoxia and measured after 2 weeks by ELISA; assay type: functional, organism-based
Rattus norvegicus [9] = experiment: Protective effect against chronic hypoxia-induced pulmonary hypertension in Sprague-Dawley rat assessed as decrease in right ventricular pressure at 50 mg/kg, ip administered every other day at 10 mins prior to induction of hypoxia and measured after 2 weeks; assay type: functional, organism-based
Pulmonary artery [10] = experiment: Protective effect against chronic hypoxia-induced pulmonary hypertension in Sprague-Dawley rat pulmonary arterial ring assessed as increase in relaxation of pulmonary artery ring at 10 uM treated after phenylephrine-induced vasoconstriction measured at 1 min; assay type: functional, tissue-based
Rattus norvegicus [11] = experiment: Protective effect against chronic hypoxia-induced pulmonary hypertension in Sprague-Dawley rat assessed as decrease in mean pulmonary arterial pressure at 50 mg/kg, ip administered every other day at 10 mins prior to induction of hypoxia and measured after 2 weeks; assay type: functional, organism-based
Pulmonary artery [12] = experiment: Protective effect against chronic hypoxia-induced pulmonary hypertension in Sprague-Dawley rat pulmonary arterial ring assessed as increase in relaxation of pulmonary artery ring at 50 uM treated after phenylephrine-induced vasoconstriction measured at 1 min; assay type: functional, tissue-based
Rattus norvegicus [13] = experiment: Protective effect against chronic hypoxia-induced pulmonary hypertension in Sprague-Dawley rat assessed as decrease in serum endothelin levels at 10 mg/kg, ip administered every other day at 10 mins prior to induction of hypoxia and measured after 2 weeks by ELISA; assay type: functional, organism-based
Rattus norvegicus [14] = species: Rattus norvegicus; experiment: Inhibition of hypoxia-induced proliferation of Sprague-Dawley rat PASMC at 10 uM preincubated for 10 mins followed by hypoxia induction and measured after 24 hrs by CCK8 assay; assay type: functional
Rattus norvegicus [15] = experiment: Protective effect against chronic hypoxia-induced pulmonary hypertension in Sprague-Dawley rat assessed as decrease in serum angiotensin-2 levels at 50 mg/kg, ip administered every other day at 10 mins prior to induction of hypoxia and measured after 2 weeks by ELISA; assay type: functional, organism-based
Pulmonary artery [16] = experiment: Protective effect against chronic hypoxia-induced pulmonary hypertension in Sprague-Dawley rat pulmonary arterial ring assessed as increase in relaxation of pulmonary artery ring at 50 uM treated after phenylephrine-induced vasoconstriction measured at 10 mins relative to control; assay type: functional; set-up: scale not given: the % may be the effect or the level left
Rattus norvegicus [17] = experiment: Protective effect against chronic hypoxia-induced pulmonary hypertension in ip dosed Sprague-Dawley rat assessed as decrease in serum TNF-alpha levels administered every other day at 10 mins prior to induction of hypoxia and measured after 2 weeks by ELISA; assay type: functional, organism-based
Pulmonary artery [18] = experiment: Protective effect against chronic hypoxia-induced pulmonary hypertension in Sprague-Dawley rat pulmonary arterial ring assessed as increase in relaxation of pulmonary artery ring at 10 uM treated after phenylephrine-induced vasoconstriction measured at 10 mins relative to control; assay type: functional; set-up: scale not given: the % may be the effect or the level left
Rattus norvegicus [19] = species: Rattus norvegicus; experiment: Inhibition of hypoxia-induced proliferation of Sprague-Dawley rat PASMC at 50 uM preincubated for 10 mins followed by hypoxia induction and measured after 24 hrs by CCK8 assay; assay type: functional
[20] = Tmax in chronic hypoxia-induced pulmonary hypertension model of Sprague-Dawley rat at 10 mg/kg, ip after 30 to 600 mins by HPLC analysis; assay type: ADME, organism-based; settings: in vivo
Rattus norvegicus [21] = experiment: Protective effect against chronic hypoxia-induced pulmonary hypertension in ip dosed Sprague-Dawley rat assessed as decrease in serum IL-6 levels administered every other day at 10 mins prior to induction of hypoxia and measured after 2 weeks by ELISA; assay type: functional, organism-based
Rattus norvegicus [22] = experiment: Protective effect against chronic hypoxia-induced pulmonary hypertension in Sprague-Dawley rat assessed as decrease in serum endothelin levels at 50 mg/kg, ip administered every other day at 10 mins prior to induction of hypoxia and measured after 2 weeks by ELISA; assay type: functional, organism-based

CC(C)(O)[C@@H]1CC[C@](C)([C@H]2[C@@H](O)C[C@@]3(C)[C@@H]4C[C@H](O[C@@H]5O[C@H](CO)[C@@H](O)[C@H](O)[C@H]5O)[C@H]5C(C)(C)[C@@H](O[C@@H]6OC[C@@H](O)[C@H](O)[C@H]6O)CC[C@@]56C[C@@]46CC[C@]23C)O1
Activity (Rattus norvegicus [1]): inactive | Activity (Rattus norvegicus [2]): inactive | Cmax [3]: 25200 ng/mL | Cmax [4]: 7270 ng/mL | Activity (Rattus norvegicus [5]): inactive | Tmax [6]: 1 h | Activity (Rattus norvegicus [7]): inactive | Activity (Rattus norvegicus [8]): inactive | Activity (Rattus norvegicus [9]): inactive | Activity (Pulmonary artery [10]): Active | Activity (Rattus norvegicus [11]): inactive | Activity (Pulmonary artery [12]): Active | Activity (Rattus norvegicus [13]): inactive | inhibition (Rattus norvegicus [14]): inactive | Activity (Rattus norvegicus [15]): Active | Activity (Pulmonary artery [16]): 21.194% | Activity (Rattus norvegicus [17]): Dose-dependent effect | Activity (Pulmonary artery [18]): 9.42% | inhibition (Rattus norvegicus [19]): Active | Tmax [20]: 1 h | Activity (Rattus norvegicus [21]): Dose-dependent effect | Activity (Rattus norvegicus [22]): Active
